One experiment concerns SW48 cells. Put plainly: Proliferation assay SW48 (CellTiterGlo). Type of experiment: cell-based. As to conditions: Homo sapiens, SW48, 96 h, SW48 colon carcinoma cells, 96 hours, CellTiterGlo; geometric mean of at least 2; read-out: Proliferation Assay SW48 GI50. The method in brief:
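Read-out is CellTiterGlo luminescence after 96 hours of compound exposure, with % growth calculated against day-0 and vehicle-treated ATP levels. SW48 seeded at 2,000 cells/well, dosed next day with eight 3-fold serial dilutions, 0.1% DMSO. GI50 reported as geometric mean, at least 2 replicates.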
In general terms: Cellular ATP, detected with luciferase, serves as a proxy for viable cell number.

For the next experiment, the system named is DLD1-WRN-KO cells. Put plainly: Proliferation assay DLD1-WRN-KO (CellTiterGlo, off-target effects). It is filed as cell-based. The settings on record: 96 hours, geometric mean of at least 2. The method in brief: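 DLD1 cells with CRISPR knockout of WRN were exposed overnight-seeded to eight 3-fold compound dilutions (0.1% DMSO) for 96 h at 37 °C. Viability was read as ATP by CellTiterGlo luminescence against a day-0 plate, giving GI50 and residual viability at top concentration.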

In experiment [1] the target is T1, WRN helicase (aa N517-P1238) (Homo sapiens, UniProt Q14191).
T1 construct: The core helicase motif of the WRN protein (aa N517-P1238) was produced for this assay; His (N); ZZ (N); 3C protease cleavage site (N); made in house; host or cells: Sf21 insect cells (baculovirus; virus and BIICs made in SF9)
Briefly: WRN ATPase assay (DNA dependent ATP hydrolysis, ADP-Glo). Type of experiment: biochemical. As to conditions: 3 hours pre-incubation, 300 micromolar ATP, FLAP26 DNA; geometric mean of at least 2. The method in brief: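 DNA-dependent ATP hydrolysis detected as ADP by ADP-Glo luminescence, using 300 μM ATP, 0.2 nM FLAP26 substrate and 10 nM WRN aa N517-P1238 (Tris pH 7.5 buffer, 2 mM MgCl2, 50 mM NaCl). IC50s fitted from normalized duplicate half-log dilutions; reported as geometric means of at least 2 replicates.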

Consider 17 molecules from patent US20260250289A1, “BICYCLIC HETEROCYCLES AND THEIR USE AS WRN INHIBITORS” (Novartis AG, priority 2022, published 2026).

SMILES strings stand for the structures.

T1 sequence (Q14191 517-1238): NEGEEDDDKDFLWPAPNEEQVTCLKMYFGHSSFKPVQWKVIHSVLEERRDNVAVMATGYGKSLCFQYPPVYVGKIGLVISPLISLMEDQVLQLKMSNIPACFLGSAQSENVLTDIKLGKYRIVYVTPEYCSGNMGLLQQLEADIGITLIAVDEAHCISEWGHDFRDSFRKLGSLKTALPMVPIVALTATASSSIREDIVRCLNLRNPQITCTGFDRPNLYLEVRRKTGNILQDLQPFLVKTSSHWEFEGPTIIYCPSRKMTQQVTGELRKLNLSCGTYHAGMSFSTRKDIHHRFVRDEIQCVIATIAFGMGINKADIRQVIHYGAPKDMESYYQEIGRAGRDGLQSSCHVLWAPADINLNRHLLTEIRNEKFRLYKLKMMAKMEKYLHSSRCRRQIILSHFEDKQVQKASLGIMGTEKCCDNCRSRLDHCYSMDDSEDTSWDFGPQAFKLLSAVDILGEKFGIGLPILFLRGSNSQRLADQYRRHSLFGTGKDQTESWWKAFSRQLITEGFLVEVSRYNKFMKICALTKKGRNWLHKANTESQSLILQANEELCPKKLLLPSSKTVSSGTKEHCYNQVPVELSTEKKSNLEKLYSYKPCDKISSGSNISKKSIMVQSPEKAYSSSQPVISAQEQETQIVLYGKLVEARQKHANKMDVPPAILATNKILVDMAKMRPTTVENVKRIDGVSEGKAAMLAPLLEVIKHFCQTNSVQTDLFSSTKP

With `CC(=O)N1CCN(c2c(C)n(CC(=O)Nc3ccc(C(F)(F)F)cc3)c3nc(C4=CCCC4)nn3c2=O)CC1` [Example 110, 2-(6-(4-acetylpiperazin-1-yl)-2-(cyclopent-1-en-1-yl)-5-methyl-7-oxo-[1,2,4]triazolo[1,5-a]pyrimidin-4(7H)-yl)-N-(4-(trifluoromethyl)phenyl)acetamide], the GI50 with SW48 cells was 5000 nM; in the experiment with DLD1-WRN-KO cells, above 10 µM. The molecule also yielded an IC50 in experiment [1] of 200 nM.

For `CCc1c(N2CCN(C(=O)c3ccnc(C)c3O)CC2)c(=O)n2nc(C3=CCCCO3)nc2n1CC(=O)Nc1ccc(C(F)(F)F)cc1Cl` [Example 23, N-(2-chloro-4-(trifluoromethyl)phenyl)-2-(2-(3,4-dihydro-2H-pyran-6-yl)-5-ethyl-6-(4-(3-hydroxy-2-methylisonicotinoyl)piperazin-1-yl)-7-oxo-[1,2,4]triazolo[1,5-a]pyrimidin-4(7H)-yl)acetamide], the GI50 in the experiment on SW48 cells is 300 nM; in the experiment on DLD1-WRN-KO cells it was above 10 µM. In experiment [1], this molecule registered an IC50 of 200 nM.

For the molecule `CCc1c(N2CCN(C(=O)c3ccnc(C)c3O)CC2)c(=O)n2nc(C3=CCOCC3)nc2n1CC(=O)Nc1ccc(C(F)(F)F)cc1C` [Example 47, 2-(2-(3,6-dihydro-2H-pyran-4-yl)-5-ethyl-6-(4-(3-hydroxy-2-methylisonicotinoyl)piperazin-1-yl)-7-oxo-[1,2,4]triazolo[1,5-a]pyrimidin-4(7H)-yl)-N-(2-methyl-4-(trifluoromethyl)phenyl)acetamide], the results for the GI50 with SW48 cells and with DLD1-WRN-KO cells were 900 nM and above 10 µM, respectively. The molecule further gave an IC50 in experiment [1] of 90 nM.

On to `Cc1nc2ccccc2c(C(=O)N2CCN(c3c(C)n(CC(=O)Nc4ccc(C(F)(F)F)cc4)c4nc(C5=CCOCC5)nn4c3=O)CC2)c1O` [Example 20, 2-(2-(3,6-dihydro-2H-pyran-4-yl)-6-(4-(3-hydroxy-2-methylquinoline-4-carbonyl)piperazin-1-yl)-5-methyl-7-oxo-[1,2,4]triazolo[1,5-a]pyrimidin-4(7H)-yl)-N-(4-(trifluoromethyl)phenyl)acetamide], for which the GI50 is 1000 nM with SW48 cells and above 10 µM with DLD1-WRN-KO cells. Further, the IC50 in experiment [1] is 90 nM.

Turning to `CC(=O)N1CCN(c2c(C)n(CC(=O)Nc3c(C)cc(C(F)(F)F)cc3Cl)c3nc(C4=CCOCC4)nn3c2=O)CC1` [Example 96, 2-(6-(4-acetylpiperazin-1-yl)-2-(3,6-dihydro-2H-pyran-4-yl)-5-methyl-7-oxo-[1,2,4]triazolo[1,5-a]pyrimidin-4(7H)-yl)-N-(2-chloro-6-methyl-4-(trifluoromethyl)phenyl)acetamide], the GI50 in the experiment with SW48 cells was 3000 nM; in the experiment on DLD1-WRN-KO cells it was above 10 µM. The same molecule displayed an IC50 in experiment [1] of 800 nM.

Regarding `CC(=O)N1CCC(c2c(C)n(CC(=O)Nc3ccc(C(F)(F)F)cc3)c3nc(C4=CCOCC4)nn3c2=O)CC1` [Example 141, 2-(6-(1-acetylpiperidin-4-yl)-2-(3,6-dihydro-2H-pyran-4-yl)-5-methyl-7-oxo-[1,2,4]triazolo[1,5-a]pyrimidin-4(7H)-yl)-N-(4-(trifluoromethyl)phenyl)acetamide], the GI50 in the experiment on SW48 cells was 8000 nM; in the experiment with DLD1-WRN-KO cells, above 10 µM. For the same molecule, the IC50 in experiment [1] is 400 nM.

As for `CC(=O)N1CCN(c2c(C)n(CC(=O)Nc3ccc(C(F)(F)F)c(F)c3)c3nc(C4=CCOCC4)nn3c2=O)CC1` [Example 90, 2-(6-(4-acetylpiperazin-1-yl)-2-(3,6-dihydro-2H-pyran-4-yl)-5-methyl-7-oxo-[1,2,4]triazolo[1,5-a]pyrimidin-4(7H)-yl)-N-(3-fluoro-4-(trifluoromethyl)phenyl)acetamide], the GI50 in the experiment on SW48 cells was 4000 nM; in the experiment on DLD1-WRN-KO cells, above 10 µM. The molecule also registered a half-inhibitory concentration (IC50) in experiment [1] of 600 nM.

Consider `CC(=O)N1CCN(c2c(C)n(CC(=O)Nc3ccc(C(F)(F)F)cc3)c3nc(C4=CCN(CC(F)F)CC4)nn3c2=O)CC1` [Example 119, 2-(6-(4-acetylpiperazin-1-yl)-2-(1-(2,2-difluoroethyl)-1,2,3,6-tetrahydropyridin-4-yl)-5-methyl-7-oxo-[1,2,4]triazolo[1,5-a]pyrimidin-4(7H)-yl)-N-(4-(trifluoromethyl)phenyl)acetamide], for which the GI50 was 6000 nM in the experiment on SW48 cells and above 10 µM with DLD1-WRN-KO cells. This molecule also gave an IC50 in experiment [1] of 600 nM.

Take `CC(=O)N1CCN(c2c(C)n(CC(=O)Nc3ccc(C(F)(F)F)cc3)c3nc(C4=CCOCC4)nn3c2=O)C[C@H]1C` [Example 63, (R)-2-(6-(4-acetyl-3-methylpiperazin-1-yl)-2-(3,6-dihydro-2H-pyran-4-yl)-5-methyl-7-oxo-[1,2,4]triazolo[1,5-a]pyrimidin-4(7H)-yl)-N-(4-(trifluoromethyl)phenyl)acetamide]: the GI50 with SW48 cells is 4000 nM; in the experiment with DLD1-WRN-KO cells it was above 10 µM. For the same molecule, the IC50 in experiment [1] stood at 500 nM.

Take `CCc1ccc(NC(=O)Cn2c(C)c(N3CCN(C(C)=O)CC3)c(=O)n3nc(C4=CCOCC4)nc23)cc1C(F)(F)F` [Example 72, 2-(6-(4-acetylpiperazin-1-yl)-2-(3,6-dihydro-2H-pyran-4-yl)-5-methyl-7-oxo-[1,2,4]triazolo[1,5-a]pyrimidin-4(7H)-yl)-N-(4-ethyl-3-(trifluoromethyl)phenyl)acetamide]: the GI50 with SW48 cells is 2000 nM; in the experiment with DLD1-WRN-KO cells, above 10 µM. For the same molecule, in experiment [1], the IC50 came to 100 nM.

In the case of `CCc1c(C2CCN(C(C)=O)CC2)c(=O)n2nc(C3=CCCCO3)nc2n1CC(=O)Nc1ccc(C(F)(F)F)cc1` [Example 138, 2-(6-(1-acetylpiperidin-4-yl)-2-(3,4-dihydro-2H-pyran-6-yl)-5-ethyl-7-oxo-[1,2,4]triazolo[1,5-a]pyrimidin-4(7H)-yl)-N-(4-(trifluoromethyl)phenyl)acetamide], the GI50 was 1000 nM in the experiment with SW48 cells and above 10 µM with DLD1-WRN-KO cells. The same molecule yielded an IC50 in experiment [1] of 80 nM.

Consider `Cc1c(N2CCN(C(=O)c3cncc(F)c3O)CC2)c(=O)n2nc(C3=CCOCC3)nc2n1CC(=O)Nc1ccc(C(F)(F)F)cc1` [Example 22, 2-(2-(3,6-dihydro-2H-pyran-4-yl)-6-(4-(5-fluoro-4-hydroxynicotinoyl)piperazin-1-yl)-5-methyl-7-oxo-[1,2,4]triazolo[1,5-a]pyrimidin-4(7H)-yl)-N-(4-(trifluoromethyl)phenyl)acetamide], for which the GI50 was above 10000 nM in the experiment on SW48 cells and above 10 µM in the experiment with DLD1-WRN-KO cells. The same molecule yielded an IC50 in experiment [1] of 100 nM.

Regarding `Cc1c(N2CCN(C(=O)Nc3nccs3)CC2)c(=O)n2nc(C3=CCOCC3)nc2n1CC(=O)Nc1ccc(C(F)(F)F)cc1` [Example 29, 4-(2-(3,6-dihydro-2H-pyran-4-yl)-5-methyl-7-oxo-4-(2-oxo-2-((4-(trifluoromethyl)phenyl)amino)ethyl)-4,7-dihydro-[1,2,4]triazolo[1,5-a]pyrimidin-6-yl)-N-(thiazol-2-yl)piperazine-1-carboxamide], the GI50 was 2000 nM with SW48 cells and above 10 µM in the experiment on DLD1-WRN-KO cells. In experiment [1], this molecule gave an IC50 of 100 nM.

In the case of `Cc1cc(C(=O)N2CCN(c3c(C)n(CC(=O)Nc4ccc(C(F)(F)F)cc4)c4nc(C5=CCOCC5)nn4c3=O)CC2)c(O)cn1` [Example 26, 2-(2-(3,6-dihydro-2H-pyran-4-yl)-6-(4-(5-hydroxy-2-methylisonicotinoyl)piperazin-1-yl)-5-methyl-7-oxo-[1,2,4]triazolo[1,5-a]pyrimidin-4(7H)-yl)-N-(4-(trifluoromethyl)phenyl)acetamide], the values for the GI50 in the experiment with SW48 cells and in the experiment on DLD1-WRN-KO cells were above 10000 nM and above 10 µM, respectively. The same molecule displayed an IC50 in experiment [1] of 300 nM.

Turning to `CC(=O)N1CCN(c2c(C)n(CC(=O)Nc3ccc(C(F)(F)F)nc3Cl)c3nc(N4CCCC(F)C4)nn3c2=O)CC1` (stereo not drawn) [Example 5, 2-(6-(4-acetylpiperazin-1-yl)-2-(3-fluoropiperidin-1-yl)-5-methyl-7-oxo-[1,2,4]triazolo[1,5-a]pyrimidin-4(7H)-yl)-N-(2-chloro-6-(trifluoromethyl)pyridin-3-yl)acetamide], the GI50 in the experiment with SW48 cells was 8000 nM; with DLD1-WRN-KO cells it was above 10 µM. Also, in experiment [1], the IC50 was 2000 nM.

As for `CCc1c(N2CCN(C(=O)c3c(O)ccc4ccncc34)CC2)c(=O)n2nc(C3=CCOCC3)nc2n1CC(=O)Nc1ccc(C(F)(F)F)cc1C` [Example 40, 2-(2-(3,6-dihydro-2H-pyran-4-yl)-5-ethyl-6-(4-(7-hydroxyisoquinoline-8-carbonyl)piperazin-1-yl)-7-oxo-[1,2,4]triazolo[1,5-a]pyrimidin-4(7H)-yl)-N-(2-methyl-4-(trifluoromethyl)phenyl)acetamide], the values for the GI50 in the experiment on SW48 cells and in the experiment with DLD1-WRN-KO cells were 600 nM and above 10 µM, respectively. The molecule further gave an IC50 in experiment [1] of 40 nM.

Take `Cc1c(N2CCN(C(=O)c3cnccc3O)CC2)c(=O)n2nc(C3=CCOCC3)nc2n1CC(=O)Nc1ccc(C(F)(F)F)cc1` [Example 24, 2-(2-(3,6-dihydro-2H-pyran-4-yl)-6-(4-(4-hydroxynicotinoyl)piperazin-1-yl)-5-methyl-7-oxo-[1,2,4]triazolo[1,5-a]pyrimidin-4(7H)-yl)-N-(4-(trifluoromethyl)phenyl)acetamide]: the GI50 was above 10000 nM in the experiment on SW48 cells and above 10 µM in the experiment on DLD1-WRN-KO cells. The same molecule returned an IC50 in experiment [1] of 200 nM.

Usually IC50 stands for the concentration at which inhibition is half-maximal. Read a low IC50 as greater potency in that assay.
